Measured values: patent US11066413B2, “Aminopyrimidine five-membered heterocyclic compound, and intermediate, preparation method, pharmaceutical composition and application thereof” (GUANGZHOU MAXINOVEL PHARMACEUTICALS CO., LTD., priority 2017, dated 2021)

target: T1, hA2A receptor (Homo sapiens (Human), UniProt P29274); assay: binding affinity IC50 to hA2A receptor (SPA beads, Effect Embodiment 1); conditions: A2A receptor membrane, 1 hour at room temperature, read-out: IC50 values of compound 1 binding affinity to hA2A receptor
Method: evaluation experiment of the binding affinity IC50 of the compound 1 to hA2A receptor.
Experimental procedure • 1. Preparation of the test compound. • 1) The compound mother plate (1500 rpm, 1 minute) was centrifuged; • 2) 50 Nanoliters was transferred from the compound mother plate to the reaction plate by a nano-sound sonic pipetting system; • 2. Preparation of buffer medium membrane, preparation of beads suspension; • 1) DMSO was added to the assay buffer, final concentration of DMSO was 1%; • 2) homogenized A2A receptor membrane was connected to a 1 mL syringe five times by a No. 26 needle (to avoid air bubbles); • 3) the buffer, A2A receptor membrane and ADA were mixed, and was let stand for 15 minutes at room temperature; • 4) SPA beads were added and mixed well with A2A receptor membrane; • 3. Preparation of radioisotope buffer • 4. Mix reaction reagents • 1) 20 μL of radioactive buffer solution was added into the reaction plate; • 2) 30 μL of membrane and […] suspension was added into the reaction plate; • 3) the plate was sealed and incubated for 1 hour at room temperature with vigorous mixing and shaking; • 4) the beads were precipitated for 4-5 minutes before reading. • 5) Reading with Microbeta; • 5. Data processing

T1 sequence (P29274 whole entry): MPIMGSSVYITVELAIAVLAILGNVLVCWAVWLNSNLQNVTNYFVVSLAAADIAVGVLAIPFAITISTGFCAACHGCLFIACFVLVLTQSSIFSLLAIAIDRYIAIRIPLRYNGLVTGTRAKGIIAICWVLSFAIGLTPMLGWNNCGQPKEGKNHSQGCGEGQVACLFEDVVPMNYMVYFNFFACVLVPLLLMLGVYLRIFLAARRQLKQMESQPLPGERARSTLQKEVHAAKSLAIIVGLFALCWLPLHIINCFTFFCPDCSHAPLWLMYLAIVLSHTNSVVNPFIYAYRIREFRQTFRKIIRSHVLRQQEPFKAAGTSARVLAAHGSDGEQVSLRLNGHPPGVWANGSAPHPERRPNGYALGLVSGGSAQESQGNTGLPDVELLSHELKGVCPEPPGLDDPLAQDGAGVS

IC50 [µM] | SMILES
0.079 | Nc1nc(-c2ccco2)c2c(n1)C(Cc1ccccc1F)OC2=O (stereo not shown) [Compound 1, 2-amino-7-(2-fluorobenzyl)-4-(furan-2-yl)-5H,7H-furo[3,4-d]pyrimidin-5-one]

target: T1, hA2A receptor; assay: binding affinity IC50 to hA2A receptor ([3H]-CGS 21680 filter binding, Effect Embodiment 2); conditions: A2A membrane, [3H]-CGS 21680 (final 25 nM), 90 minutes at 25° C.
Method: Evaluation experiment of the binding affinity IC50 of the compounds 1-61 to hA2A receptor
40 uL of ULTIMA GOLD scintillation fluid was added to each well and the CPM (count per minute) value was read by TopCount.

IC50 [µM] | SMILES
0.0147 | Nc1nc(-c2ccco2)c2c(n1)C(Cc1ccccc1F)OC2=O (stereo not shown) [Compound 1, 2-amino-7-(2-fluorobenzyl)-4-(furan-2-yl)-5H,7H-furo[3,4-d]pyrimidin-5-one]
0.0157 | Nc1nc(-c2ccco2)c2c(n1)C(Cc1ccccc1C(F)(F)F)OC2=O (stereo not shown) [Compound 16, 2-amino-4-(furan-2-yl)-7-((2-(trifluoromethyl)phenyl)methyl)-5H,7H-furo[3,4-d]pyrimidin-5-one]
0.0112 | Cc1ccc(-c2nc(N)nc3c2C(=O)OC3Cc2ccccc2C(F)(F)F)o1 (stereo not shown) [Compound 28, 2-amino-7-((2-(trifluoromethyl)phenyl)methyl)-4-(5-methylfuran-2-yl)-5H,7H-furo[3,4-d]pyrimidin-5-one]
0.0087 | CN1C(=O)c2c(nc(N)nc2-c2ccco2)C1=Cc1ccc(F)cc1F [Compound 46, 2-amino-7-((2,4-difluorophenyl)methylene)-4-(furan-2-yl)-6-methyl-5H,6H,7H-pyrrolo[3,4-d]pyrimidin-5-one]
0.0107 | Nc1nc(-c2ccco2)c2c(n1)C(Cc1ccc(F)cc1F)OC2=O (stereo not shown) [Compound 8, 2-amino-7-(2,4-difluorobenzyl)-4-(furan-2-yl)-5H,7H-furo[3,4-d]pyrimidin-5-one]
0.0347 | Cc1ccc(-c2nc(N)nc3c2C(=O)N(C)C3Cc2ccccc2C(F)(F)F)o1 (stereo not shown) [Compound 54, 2-amino-7-((2-(trifluoromethyl)phenyl)methyl)-4-(5-methylfuran-2-yl)-6-methyl-5H,6H,7H-pyrrolo[3,4-d]pyrimidin-5-one]
0.0562 | Cc1ccc(-c2nc(N)nc3c2C(=O)N(C)C3Cc2ccccc2OC(F)(F)F)o1 (stereo not shown) [Compound 53, 2-amino-7-((2-(trifluoromethoxyl)phenyl)methyl)-4-(5-methylfuran-2-yl)-6-methyl-5H,6H,7H-pyrrolo[3,4-d]pyrimidin-5-one]
0.0393 | Nc1nc(-c2ccco2)c2c(n1)C(Cc1ccc(Cl)cc1F)OC2=O (stereo not shown) [Compound 2, 2-amino-7-(4-chloro-2-fluorobenzyl)-4-(furan-2-yl)-5H,7H-furo[3,4-d]pyrimidin-5-one]
0.0737 | Nc1nc(-c2ccco2)c2c(n1)C(Cc1cccc(Cl)c1F)OC2=O (stereo not shown) [Compound 18, 2-amino-7-((3-chloro-2-fluorophenyl)methyl)-4-(furan-2-yl)-5H,7H-furo[3,4-d]pyrimidin-5-one]
0.0321 | Cc1ccc(-c2nc(N)nc3c2C(=O)OC3Cc2ccc(F)cc2F)o1 (stereo not shown) [Compound 26, 2-amino-7-((2,4-difluorophenyl)methyl)-4-(5-methylfuran-2-yl)-5H,7H-furo[3,4-d]pyrimidin-5-one]
0.0292 | Nc1nc(-c2ccco2)c2c(n1)C(Cc1c(F)cccc1Cl)OC2=O (stereo not shown) [Compound 17, 2-amino-7-((2-chloro-6-fluorophenyl)methyl)-4-(furan-2-yl)-5H,7H-furo[3,4-d]pyrimidin-5-one]
0.0311 | Cc1ccccc1CC1OC(=O)c2c(-c3ccco3)nc(N)nc21 (stereo not shown) [Compound 19, 2-amino-7-((2-methylphenyl)methyl)-4-(furan-2-yl)-5H,7H-furo[3,4-d]pyrimidin-5-one]
0.0039 | Nc1nc(-c2ccco2)c2c(n1)C(Cc1ccccc1OC(F)(F)F)OC2=O (stereo not shown) [Compound 23, 2-amino-7-((2-(trifluoromethoxyl)phenyl)methyl)-4-(furan-2-yl)-5H,7H-furo[3,4-d]pyrimidin-5-one]
0.213 | Cc1ccc(-c2nc(N)nc3c2n(C)c(=O)n3-c2ccccc2C(F)(F)F)o1 [Compound 61, 2-amino-7-methyl-6-(5-methylfuran-2-yl)-9-(2-(trifluoromethyl)phenyl)-8(9H)-carbonyl-7H-purine]
0.274 | Nc1nc(-c2ccco2)c2c(n1)C(Cc1ccc(C(F)(F)F)cc1)OC2=O (stereo not shown) [Compound 15]
0.0164 | CN1C(=O)c2c(-c3ccco3)nc(N)nc2C1Cc1ccc(F)cc1F (stereo not shown) [Compound 47, 2-amino-7-((2,4-difluorophenyl)methyl)-4-(furan-2-yl)-6-methyl-5H,6H,7H-pyrrolo[3,4-d]pyrimidin-5-one]
0.0321 | Nc1nc(-c2ccco2)c2c(n1)C(Cc1ccccc1Cl)OC2=O (stereo not shown) [Compound 11, 2-amino-7-(2-chlorobenzyl)-4-(furan-2-yl)-5H,7H-furo[3,4-d]pyrimidin-5-one]
0.992 | Cc1ccc(-c2nc(N)nc3c2C(=O)OC3(C)Cc2ccccc2F)o1 (stereo not shown) [Compound 43, 2-amino-7-((2-fluorophenyl)methyl)-7-methyl-4-(5-methylfuran-2-yl)-5H,7H-furo[3,4-d]pyrimidin-5-one]
